For orientation: MIC means the lowest concentration found to suppress growth. Higher therefore signals a need for much substance.

Ten compounds from US4910213A, “Antimycotic agents” (Bayer Aktiengesellschaft, priority 1984, dated 1990) can be followed below.

The subject of assay [1] is candida cells. Nature of the assay: In vivo antimycotic activity (oral) on candidosis of the mouse. Set-up: species or system mouse (SPF-CF1) infected with candida. The conditions noted are these: 10-100 mg/kg; for Action (class of survival on day 6 after infection): 1 hour before and 7 hours after infection; for surviving on day 6 after infection: good or very good actions, untreated controls about 5%. As for the experimental part: Type SPF-CF1 mice were infected intravenously with 1-2×10^6 logarithmically growing candida cells which are suspended in physiological saline solution. The animals are each treated orally with 10-100 mg/kg of body weight of the products 1 hour before and 7 hours after the infection. Untreated animals died on days 3 to 6 after the infection. The survival rate on day 6 after the infection was about 5% for untreated control animals.

Assay [2] relates to Torulopsis glabrata. Description: In vitro antimycotic activity, serial dilution test (MIC). Type of assay: cell-based. The conditions noted are these: Nakaseomyces glabratus, 28° to 37° C., 24 to 96 hours. As for the experimental part:
(§1) The in vitro tests were carried out in a serial dilution test using inocula of organisms with an average of 5×10^3 to 10^4 organisms/ml of substrate. The following nutrient medium were used (b) for yeasts: meat extract/glucose broth. The incubation temperature was 28° to 37° C., and the incubation time was 24 to 96 hours for yeasts and 96 hours for dermatophytes and mold fungi.

The subject of assay [3] is Candida albicans. The assay is described as above. Type of assay: cell-based. The conditions noted are these: 28° to 37° C., 24 to 96 hours. As for the experimental part: as §1
In assay [4] the test system is dermatophytes, mold fungi and yeasts. Description: In vitro antimycotic activity, overall comparison with known compounds. The conditions noted are these: in vitro serial dilution test. Type of assay: cell-based. Here is the method:
The in vitro tests were carried out in a serial dilution test using inocula of organisms with an average of 5×10^3 to 10^4 organisms/ml of substrate. The following nutrient medium were used (a) for dermatophytes and mold fungi: Sabourand's milieu d'epreuve (b) for yeasts: meat extract/glucose broth. The incubation temperature was 28° to 37° C., and the incubation time was 24 to 96 hours for yeasts and 96 hours for dermatophytes and mold fungi.

For assay [5], the system named is Trichophyton mentagr. Description: In vitro antimycotic activity, serial dilution test (MIC). Type of assay: cell-based, Trichophyton mentagrophytes. The conditions noted are these: 28° to 37° C., 96 hours. Here is the method: (§2) The in vitro tests were carried out in a serial dilution test using inocula of organisms with an average of 5×10^3 to 10^4 organisms/ml of substrate. The following nutrient medium were used
(§3) (a) for dermatophytes and mold fungi: Sabourand's milieu d'epreuve
(§4) The incubation temperature was 28° to 37° C., and the incubation time was 24 to 96 hours for yeasts and 96 hours for dermatophytes and mold fungi.

The test system of assay [6] is Microsporum canis. The description is as above. In kind it is cell-based. The conditions noted are these: 28° to 37° C., 96 hours. As for the experimental part:
as §2, §3, §4

In assay [7] the test system is Aspergillus fumigatus. The assay is described as above. The conditions noted are these: 28° to 37° C., 96 hours. In kind it is cell-based. As for the experimental part:
as §2, §3, §4

In brackets after ≈: the same amount, converted by molar mass.

As for `OC(Cn1cncn1)(c1ccccc1)C1(n2cncn2)CC1` (stereo not shown) [Example I-6], the “Action (class of survival on day 6 after infection)” value in assay [1] is reported as “+++++ (very good action = 90% surviving on day 6 after infection)”. Besides, the “surviving on day 6 after infection” value in assay [1] is above 60%. The MIC in assay [2] was above 64 µg/mL; in assay [3], 8 µg/mL (≈ 27 µM); in assay [5] it was 4 µg/mL (≈ 13.5 µM); in assay [6] it was 32 µg/mL (≈ 108 µM); in assay [7] it was 32 µg/mL (≈ 108 µM). Also, in assay [4], the “antimycotic action compared with compounds (A), (B) and (C)” value was “better antimycotic action than compounds (A), (B) and (C)”.
Take `OC(Cn1cncn1)(c1ccc(F)cc1)C1(n2cncn2)CC1` (stereo not shown) [Example I-2]: in assay [1], the “Action (class of survival on day 6 after infection)” value is “+++++ (very good action = 90% surviving on day 6 after infection)” and the “surviving on day 6 after infection” value is reported as above 60%.
In the same order, the values of `Cc1ccc(C(O)(Cn2cncn2)C2(n3cncn3)CC2)cc1` (stereo not shown) [Example I-5] are “++++ (good action = 80% surviving on day 6 after infection)” and above 60%.
Take `OC(Cn1cncn1)(c1ccc(Br)cc1)C1(n2cncn2)CC1` (stereo not shown) [Example I-7]: the “Action (class of survival on day 6 after infection)” value in assay [1] is recorded as “++++ (good action = 80% surviving on day 6 after infection)”. Moreover, the “surviving on day 6 after infection” value in assay [1] is recorded as above 60%. In addition, the MIC in assay [2] is 32 µg/mL (≈ 85.3 µM); in assay [3], 4 µg/mL (≈ 10.7 µM); in assay [5], below 1 µg/mL; in assay [6], 32 µg/mL (≈ 85.3 µM); in assay [7], 64 µg/mL (≈ 171 µM). For the same compound, the “antimycotic action compared with compounds (A), (B) and (C)” value in assay [4] is “better antimycotic action than compounds (A), (B) and (C)”.
In the case of `OC(Cn1cncn1)(Cn1cncn1)c1ccc(Cl)cc1` [(B), reference compound], the MIC is 64 µg/mL (≈ 210 µM) in assay [2], 2 µg/mL (≈ 6.56 µM) in assay [3], 16 µg/mL (≈ 52.5 µM) in assay [5] and above 64 µg/mL in assay [7].
With `OC(Cn1cncn1)(c1ccc(Cl)cc1)C1(n2cncn2)CC1` (stereo not shown) [Example I-1, 1-(4-chlorophenyl)-1-[1-(1,2,4-triazol-1-yl)cyclopropyl]-2-(1,2,4-triazol-1-yl)-1-ethanol], in assay [1], the “Action (class of survival on day 6 after infection)” value was “+++++ (very good action = 90% surviving on day 6 after infection)”. The “surviving on day 6 after infection” value in assay [1] is above 60%. The MIC in assay [2] was above 64 µg/mL; in assay [3] it was 8 µg/mL (≈ 24.2 µM); in assay [5] it was 2 µg/mL (≈ 6.05 µM); in assay [6], 32 µg/mL (≈ 96.7 µM); in assay [7] it was 32 µg/mL (≈ 96.7 µM). For the same compound, the “antimycotic action compared with compounds (A), (B) and (C)” value in assay [4] was “better antimycotic action than compounds (A), (B) and (C)”.
Regarding `OC(Cn1cncn1)(c1ccc(Cl)cc1)C1(n2ccnc2)CC1` (stereo not shown) [Example I-10], in assay [1], the “Action (class of survival on day 6 after infection)” value is reported as “+++ (action = 60% surviving on day 6 after infection)” and the “surviving on day 6 after infection” value is above 60%.
`OC(Cn1cncn1)(Cn1cncn1)c1ccccc1` [(C), reference compound]: the MIC was above 64 µg/mL in assay [2], 64 µg/mL (≈ 237 µM) in assay [3], 64 µg/mL (≈ 237 µM) in assay [5] and above 64 µg/mL in assay [7].
Turning to `OC(Cn1cncn1)(Cn1cncn1)c1cccc(Cl)c1` [(A), reference compound], the figures for the MIC in assay [2], in assay [5] and in assay [7] were above 64 µg/mL, 32 µg/mL (≈ 105 µM) and above 64 µg/mL, respectively.
Turning to `OC(Cn1cncn1)(c1ccc(-c2ccccc2)cc1)C1(n2cncn2)CC1` (stereo not shown) [Example I-3], in assay [1], the “Action (class of survival on day 6 after infection)” value is given as “+++ (action = 60% surviving on day 6 after infection)”. Besides, the “surviving on day 6 after infection” value in assay [1] is recorded as above 60%. The MIC in assay [2] was 8 µg/mL (≈ 21.5 µM); in assay [3], 2 µg/mL (≈ 5.37 µM); in assay [5], below 1 µg/mL; in assay [6], 4 µg/mL (≈ 10.7 µM); in assay [7], 8 µg/mL (≈ 21.5 µM). Besides, the “antimycotic action compared with compounds (A), (B) and (C)” value in assay [4] is “better antimycotic action than compounds (A), (B) and (C)”.
